Where “and” joins values, the source holds several entries; their conditions need not be identical. Equal values may be shown once.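 Five compound concentrations were applied to cells in 96-well plates for 48 hours; endpoints were derived by simple linear interpolation of the resulting dose-response curve. At the GI50, growth is halved. TGI denotes the concentration required for complete inhibition of growth.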
Tests used:
Assay in all cases: NCI tumour cell line growth inhibition, 48 h
[1] = tested on: HOP-92 NSCLC
[2] = tested on: SR leukemia
[3] = tested on: IGROV1 ovarian
[4] = tested on: UACC-62 melanoma
[5] = tested on: MCF7 breast
[6] = tested on: A549 NSCLC
[7] = tested on: SF-295 CNS
[8] = tested on: CAKI-1 renal
[9] = tested on: NCI-H23 lung
[10] = tested on: HCT-15 colon
[11] = tested on: HCT-116 colon
[12] = tested on: SNB-75 CNS
[13] = tested on: SK-OV-3 ovarian
[14] = tested on: SF-539 CNS
[15] = tested on: MOLT-4 leukemia
[16] = tested on: NCI/ADR-RES ovarian
[17] = tested on: SK-MEL-5 melanoma
[18] = tested on: UO-31 renal
[19] = tested on: MALME-3M melanoma
[20] = tested on: UACC-257 melanoma
[21] = tested on: HL-60(TB) leukemia
[22] = tested on: RPMI-8226 leukemia
[23] = tested on: K-562 leukemia
[24] = tested on: TK-10 renal
[25] = tested on: HOP-62 NSCLC
[26] = tested on: ACHN renal
[27] = tested on: SF-268 CNS
[28] = tested on: KM12 colon
[29] = tested on: OVCAR-3 ovarian
[30] = tested on: EKVX NSCLC
[31] = tested on: T-47D breast
[32] = tested on: LOX IMVI melanoma
[33] = tested on: SW-620 colon
[34] = tested on: SNB-19 CNS
[35] = tested on: A498 renal
[36] = tested on: CCRF-CEM leukemia
[37] = tested on: NCI-H522 lung
[38] = tested on: HCC-2998 colon
[39] = tested on: RXF 393 renal
[40] = tested on: M14 melanoma
[41] = tested on: PC-3 prostate
[42] = tested on: 786-0 renal
[43] = tested on: BT-549 breast
[44] = tested on: NCI-H460 lung
[45] = tested on: OVCAR-5 ovarian
[46] = tested on: HS 578T breast
[47] = tested on: SN12C renal
[48] = tested on: NCI-H226 lung
[49] = tested on: HT29 colon
[50] = tested on: U251 CNS
[51] = tested on: MDA-MB-231 breast
[52] = tested on: DU-145 prostate
[53] = tested on: OVCAR-4 ovarian
[54] = tested on: SK-MEL-2 melanoma
[55] = tested on: SK-MEL-28 melanoma

Compound `CC[C@@H]1c2c(C#N)ncn2-c2cnc(Nc3ccc(C(=O)NC4CCN(C5CCN(CC6CC6)CC5)CC4)cc3OC)nc2N1C1CCCC1` has a GI50 [1] of 77.7 nM, a TGI [1] of 1830 nM and a GI50 [2] of 38.7 nM. The TGI [2] was 1020 nM, the GI50 [3] was 35.8 nM and the TGI [3] was 1360 nM. The GI50 [4] was 372 nM, the TGI [4] was 1790 nM and the GI50 [5] was 5.14 nM. The TGI [5] was 1200 nM, the GI50 [6] was 40.1 nM and the TGI [6] was 1120 nM. For the same compound, the GI50 [7] was 45.4 nM, the TGI [7] was 1940 nM and the GI50 [8] was 1620 nM. It also gave a TGI [8] of 3880 nM, a GI50 [9] of 37.4 nM and a TGI [9] of 1380 nM. It also gave a GI50 [10] of 379 nM, a TGI [10] of 1440 nM and a GI50 [11] of 31.3 nM. For the same compound, the TGI [11] was 1190 nM, the GI50 [12] was 45.2 nM and the TGI [12] was 1260 nM. For the same compound, the GI50 [13] was 38.4 nM and 122 nM, the TGI [13] was 1040 nM and 1640 nM and the GI50 [14] was 49.3 nM. The TGI [14] was 888 nM, the GI50 [15] was 37 nM and the TGI [15] was 1510 nM. For the same compound, the GI50 [16] was 1290 nM, the TGI [16] was 2800 nM and the GI50 [17] was 130 nM and 182 nM. The TGI [17] was 1520 nM and 1680 nM, the GI50 [18] was 1360 nM and the TGI [18] was 2690 nM. It also gave a GI50 [19] of 85.3 nM, a TGI [19] of 1850 nM and a GI50 [20] of 43.1 nM. The TGI [20] was 1670 nM, the GI50 [21] was 24.9 nM and the TGI [21] was 104 nM. The GI50 [22] was 83 nM, the TGI [22] was 2970 nM and the GI50 [23] was 33.7 nM. The TGI [23] was 308 nM, the GI50 [24] was 1030 nM and the TGI [24] was 2230 nM. It also gave a GI50 [25] of 40.3 nM, a TGI [25] of 1790 nM and a GI50 [26] of 625 nM. It also gave a TGI [26] of 1930 nM, a GI50 [27] of 64.2 nM and a TGI [27] of 1770 nM. For the same compound, the GI50 [28] was 36.3 nM and 33.8 nM, the TGI [28] was 1070 nM and 1050 nM and the GI50 [29] was 40.1 nM. The TGI [29] was 1630 nM, the GI50 [30] was 1060 nM and the TGI [30] was 2460 nM. For the same compound, the GI50 [31] was 1300 nM, the TGI [31] was 2880 nM and the GI50 [32] was 36.8 nM. The TGI [32] was 1060 nM, the GI50 [33] was 30.8 nM and 32.7 nM and the TGI [33] was 1760 nM and 1780 nM. The GI50 [34] was 66.8 nM, the TGI [34] was 2050 nM and the GI50 [35] was 174 nM and 308 nM. For the same compound, the TGI [35] was 1170 nM and 1570 nM, the GI50 [36] was 7.38 nM and the TGI [36] was 1580 nM. For the same compound, the GI50 [37] was 23 nM, the TGI [37] was 126 nM and the GI50 [38] was 40 nM and 30.8 nM. The TGI [38] was 1090 nM and 162 nM, the GI50 [39] was 46.2 nM and the TGI [39] was 1800 nM. It also gave a GI50 [40] of 31.6 nM, a TGI [40] of 1350 nM and a GI50 [41] of 43.8 nM. It also gave a TGI [41] of 2080 nM, a GI50 [42] of 164 nM and a TGI [42] of 1200 nM. For the same compound, the GI50 [43] was 485 nM, the TGI [43] was 1850 nM and the GI50 [44] was 35.4 nM. The TGI [44] was 1280 nM, the GI50 [45] was 44.9 nM and the TGI [45] was 1390 nM. The GI50 [46] was 69 nM, the TGI [46] was 1780 nM and the GI50 [47] was 91.6 nM. The TGI [47] was 1910 nM, the GI50 [48] was 1310 nM and the TGI [48] was 2640 nM. For the same compound, the GI50 [49] was 36 nM, the TGI [49] was 135 nM and the GI50 [50] was 42 nM. For the same compound, the TGI [50] was 1480 nM, the GI50 [51] was 63.1 nM and 38.2 nM and the TGI [51] was 1310 nM and 219 nM. The GI50 [52] was 23.5 nM and 35.3 nM, the TGI [52] was 72 nM and 246 nM and the GI50 [53] was 214 nM. It also gave a TGI [53] of 1700 nM, a GI50 [54] of 40.7 nM and a TGI [54] of 1820 nM. The GI50 [55] was 127 nM and the TGI [55] was 1750 nM.
